Data on six compounds can be found in ChEMBL document CHEMBL1157531, “Sinulaflexiolides A-K, cembrane-type diterpenoids from the chinese soft coral Sinularia flexibilis” (J Nat Prod, 2008).

This assay can be described thus: Cytotoxicity against human […] cells. It is filed as functional, cell-based.

Each structure is given as a SMILES string. pIC50: −log10 of the molar value.

What is called IC50 is the concentration that gives 50% inhibition. Higher therefore signals lower potency. For the compound `C=C1C(=O)O[C@@H]2C[C@H]1CC/C(C)=C/CC/C(C)=C/CC[C@]2(C)O`, the IC50 is greater than 10 mg/L.

As a reminder, the pIC50 is −log10 of the IC50, conventionally taken in molar units. A low value points to a high IC50. In turn, `C=C(C(=O)OCC)[C@@H]1CC[C@@](C)(O)[C@@H]2CC[C@@](C)(O2)[C@@H](OC(C)=O)CC[C@]2(C)O[C@@H]2C1` [SINULAFLEXIOLIDE F] showed a pIC50 of 6.92.

For `C=C1C(=O)O[C@]2(C)CC[C@@H]1C[C@H](O)/C(C)=C/C/C=C(\C)CC[C@@H]2OC(C)=O` [DENDRONPHOLIDE A], the IC50 is greater than 10 mg/L.

As for `C=C1C(=O)O[C@]2(C)CC[C@@H]1C[C@H]1O[C@@]1(C)CC[C@H](OC(C)=O)[C@@]1(C)CC[C@@H]2O1`, the IC50 was greater than 10 mg/L.

`C=C1C(=O)O[C@]2(C)CC[C@@H]1C[C@@H](O)[C@@](C)(O)CC/C=C(\C)CC[C@@H]2O` [CAPILLOLIDE] yielded a 50% inhibitory concentration (IC50) greater than 10 mg/L.

`C=C(C(=O)OC)[C@@H]1CC[C@@](C)(O)[C@@H]2CC[C@@](C)(O2)[C@@H](OC(C)=O)CC[C@]2(C)O[C@@H]2C1` [SINULAFLEXIOLIDE E] showed a negative logarithm of the IC50 (pIC50) of 5.07.
